Results from publication PMC11847541, “Liver fatty acid binding protein FABP1 transfers substrates to cytochrome P450 4A11 for catalysis” (The Journal of Biological Chemistry, 2025).
Read-outs that look alike come from different tables or passages of the source.

Experiments:
P450 4A11 [1] = molecular target: T1, P450 4A11 (Homo sapiens, UniProt Q02928); format: binding; design: made in house; host or cells: E. coli; details: for substrate transfer rate from FABP1 to P450 4A11: FABP1, DAUDA, palmitate 0.2 μM each, P450 4A11 2 μM
T1 sequence (Q02928 5-519): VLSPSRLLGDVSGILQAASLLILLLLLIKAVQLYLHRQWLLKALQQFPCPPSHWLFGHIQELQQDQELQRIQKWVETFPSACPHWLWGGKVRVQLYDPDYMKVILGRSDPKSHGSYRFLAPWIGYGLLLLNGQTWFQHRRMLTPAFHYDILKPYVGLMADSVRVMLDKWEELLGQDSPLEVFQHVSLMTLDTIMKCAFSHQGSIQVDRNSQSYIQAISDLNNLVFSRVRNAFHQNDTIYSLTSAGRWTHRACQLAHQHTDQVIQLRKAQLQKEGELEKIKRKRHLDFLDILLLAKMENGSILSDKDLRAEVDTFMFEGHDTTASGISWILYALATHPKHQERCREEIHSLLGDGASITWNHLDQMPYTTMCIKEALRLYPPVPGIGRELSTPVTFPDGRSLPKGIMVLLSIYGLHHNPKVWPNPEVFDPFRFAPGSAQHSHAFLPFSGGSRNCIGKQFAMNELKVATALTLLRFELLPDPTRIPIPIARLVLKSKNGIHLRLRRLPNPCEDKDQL
Procedure: Set up as a reverse experiment of the fluorescence displacement assay (Fig. 5), this experiment involved mixing equimolar concentrations (0.2 μM) of DAUDA, FABP1, and palmitate to form a solution ( FDS↔FD+S↔FS+D ) with low fluorescence (Fig. 5A). That solution was then rapidly mixed with an excess of P450 4A11 (2 μM), and the gain of fluorescence was monitored (i.e., as substrate was transferred from FABP1 to P450, either as FDS + P450 → FD + P450-S or as FS + P450 + D → P450-S + F + D → FD; Fig. 5A). As expected, we observed a weak but reproducible stimulation of fluorescence in this experiment (n = 6 shots), and the data were fit to single exponential equation yielding a substrate transfer rate (k6) of 4.2 ± 0.9 s^−1 (Fig. 11).
Figure 11 Rate of palmitate transfer (ktransfer) from FABP1 to P450 4A11. A stoichiometric mixture of FABP1, DAUDA, and palmitate (0.2 μM) was mixed with P450 4A11 (2 μM), and the gain of fluorescence (>420 nm) was monitored (i.e., as FDS + E → FD + ES, Fig. 5A). Six traces were averaged and fit to a single exponential equation, yielding a rate of 4.2 ± 0.9 s^−1. […] replicate experiments were averaged to generate the trace. DAUDA, 11-dansylaminoundecanoic acid; FABP1, fatty acid binding protein.
To estimate the rate of transfer of palmitate from FABP1 to P450 4A11, a mixture of palmitate, FABP1, and DAUDA (0.4 μM, each component) was mixed against a solution of P450 4A11 (4 μM). All components were diluted twofold to their final concentrations in the mixing process. The experiment was performed with stopped-flow parameters identical to the experiments of FABP1 with lipids (aforementioned), and data were processed in the same manner, with the exception that a smoothing factor of 0.4 was applied to the data (in Microsoft Excel) prior to curve fitting.

FABP1 = molecular target: T2, FABP1 (Homo sapiens, UniProt P07148); details: human FABP1, fluorescence displacement assay; read-out: Kd; cited from earlier work
T2 construct: GST (N, cleaved yes); made in house; host or cells: Escherichia coli DH5α
T2 sequence (P07148 with tags, fused parts or gaps): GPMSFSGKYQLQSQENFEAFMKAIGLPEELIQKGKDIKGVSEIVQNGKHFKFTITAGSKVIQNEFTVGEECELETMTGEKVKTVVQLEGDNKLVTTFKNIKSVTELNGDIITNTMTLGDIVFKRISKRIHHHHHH

P450 4A11 [2] = test system: P450 4A11; design: species or system human
From the text: To predict the potential effects of FABP1 on P450 4A11 catalysis, we programmed two computational models in KinTek Explorer to reflect those presented in Figure 2 (i.e., free ligand model versus direct transfer model). The models were equipped with the rate constants and/or Kd values estimated for either palmitate or DAUDA (where applicable) and for protein–protein binding, which are summarized in Table 2. As is indicated in Table 2, certain rate constants necessary for the modeling are estimated based on a known Kd value and an individual known rate constant. To predict the kinetic result of the free ligand model, the rate(s) of transfer (k6, k-6) were set to a value of zero, reflecting the predicted inability of the two proteins to interact. The interaction of P450 and FABP1 occurs in the absence of substrate, although whether the P450–FABP1 (EF) complex can accept a substrate (to form EFS) is unknown. The modeling software estimated a 1 µM Kd value for the interaction with the assumption that the complex could not accept a cytosolic substrate. To predict the kinetic result of the direct transfer model, our experimentally estimated rates of transfer were allowed to be fit by the model. Aside from the manipulations with the transfer rate, all remaining rate constants were input as they appear in Table 2.
When provided the experimental conditions for the kinetic assays in Figure 12, the free ligand model predicted that the rate of P450 catalysis decreases rapidly as the concentration of FABP1 approaches the concentration of substrate in the experiment (Fig. 12A, blue line), which is intuitive (given the difference in palmitate binding affinities; Table 1, Table 2 and 2). Provided the same conditions, the direct transfer model predicted a slight attenuation of P450 activity (as the concentration of FABP1 approaches the total concentration of substrate (S)), which yielded an excellent fit to our experimental data when a rate of P450 catalysis of 0.11 s^−1 was used (Fig. 12A, red line). […] In a separate experiment, the free ligand model similarly predicted that P450 activity would not be observed when the concentration of substrate was below the concentration of FABP1 (Fig. 12B, blue line). The direct transfer model predicted a hyperbolic product distribution (for [S] < [FABP1]) and gave a satisfactory fit to the experimental data when the same rates of ES^′→ES described earlier were used, but the rate of P450 catalysis was reduced 20-fold (to 0.005 s^−1) (Fig. 12B, red line).
Data were imported into KinTek Explorer software (version 11.01; KinTek, https://kintekcorp.com/software) ([76]) as Excel txt files and processed using an Apple computer (operating system 11.6.2, Apple). The kinetic modeling of a binding titration of FABP1 with palmitate (Fig. S13) as well as the txt files used for all kinetic modeling are provided in the Supporting Information.

Compound | substrate transfer rate from FABP1 to P450 4A11 (P450 4A11 [1]) | Kd (FABP1) | reduction of rate of P450 catalysis, Fig. 12B vs Fig. 12A model (P450 4A11 [2]) | forward rate of ES′→ES conformational transition (P450 4A11 [2]; direct transfer model) | reverse rate of ES′→ES conformational transition (P450 4A11 [2]; direct transfer model) | rate of P450 catalysis used in direct transfer model (P450 4A11 [2]; fit to Fig. 12A (FABP1 varied, palmitate 5 μM)) | rate of P450 catalysis used in direct transfer model (P450 4A11 [2]; fit to Fig. 12B (palmitate varied, FABP1 5 μM)) | rate of transfer to P450 4A11 relative to transfer to phospholipid membranes (P450 4A11 [1]) | Kd (P450 4A11 [2])
CCCCCCCCCCCCCCCC(=O)O [Palmitate (C16), palmitate] | 4.2 ± 0.9 s⁻¹ | 38 ± 1 nM | 20 fold | 0.086 s⁻¹ | 0.013 s⁻¹ | 0.11 s⁻¹ | 0.005 s⁻¹ | – | –
FABP1: delipidated recombinant liver fatty acid binding protein with C-terminal hexahistidine tag | ~5 s⁻¹ | – | – | – | – | – | – | ~1000 fold | 1000 nM
